The results in this text go back to US20070275968A1, “Substituted Biphenyl Derivative” (priority 2004, published 2007).

In turn, `Cc1ccc(-c2cccc(-c3nc(C(C)C)[nH]c3-c3cccc(C)n3)c2)cc1` [Example 3, 2-[2-Isopropyl-4-(4′-methyl-1,1′-biphenyl-3-yl)-1H-imidazol-5-yl]-6-methylpyridine] gave a melting point of 76 to 79 °C.

`COc1ccc(-c2cccc(-c3nc(C(C)C)[nH]c3-c3cccc(C)n3)c2)cc1` [Example 4, 2-[2-Isopropyl-4-(4′-methoxy-1,1′-biphenyl-3-yl)-1H-imidazol-5-yl]-6-methylpyridine] registered a melting point of 75 to 77 °C.

Turning to `Cc1cccc(-c2[nH]c(C(C)C)nc2-c2cccc(-c3ccc(C(F)(F)F)cc3)c2)n1` [Example 5, 2-{2-Isopropyl-4-[4′-(trifluoromethyl)-1,1′-biphenyl-3-yl]-1H-imidazol-5-yl}-6-methylpyridine], the melting point lay in the range of 91 to 93 °C.

On to `Cc1cccc(-c2[nH]c(C(C)C)nc2-c2cccc(-c3ccccc3F)c2)n1` [Example 6, 2-[4-(2′-Fluoro-1,1′-biphenyl-3-yl)-2-isopropyl-1H-imidazol-5-yl]-6-methylpyridine], for which the melting point was 153 to 155 °C.

`Cc1cccc(-c2[nH]c(C(C)C)nc2-c2cccc(-c3cccc(F)c3)c2)n1` [Example 7, 2-[4-(3′-Fluoro-1,1′-biphenyl-3-yl)-2-isopropyl-1H-imidazol-5-yl]-6-methylpyridine]: the melting point was in the range of 140 to 142 °C.

Regarding `Cc1cccc(-c2[nH]c(C(C)C)nc2-c2cccc(-c3ccc(F)cc3)c2)n1` [Example 8, 2-[4-(4′-Fluoro-1,1′-biphenyl-3-yl)-2-isopropyl-1H-imidazol-5-yl]-6-methylpyridine], the melting point fell in the range of 83 to 85 °C.

In the case of `Cc1cccc(-c2[nH]c(C(C)C)nc2-c2cccc(-c3ccc(F)cc3F)c2)n1` [Example 9, 2-[4-(2′,4′-Difluoro-1,1′-biphenyl-3-yl)-2-isopropyl-1H-imidazol-5-yl]-6-methylpyridine], the melting point is 70 to 72 °C.

In turn, `Cc1cccc(-c2[nH]c(C(C)C)nc2-c2cccc(-c3ccc(OC(F)(F)F)cc3)c2)n1` [Example 10, 2-{2-Isopropyl-4-[4′-(trifluoromethoxy)-1,1′-biphenyl-3-yl]-1H-imidazol-5-yl}-6-methylpyridine] had a melting point of 120 to 122 °C.

For `Cc1cccc(-c2[nH]c(C(C)C)nc2-c2cccc(-c3cccnc3)c2)n1` [Example 11, 2-[2-Isopropyl-4-(3-pyridin-3-ylphenyl)-1H-imidazol-5-yl]-6-methylpyridine], the melting point lay within 74 to 77 °C.

Compound `Cc1cccc(-c2[nH]c(C(C)C)nc2-c2cccc(-c3ccncc3)c2)n1` [Example 12, 2-[2-Isopropyl-4-(3-pyridin-4-ylphenyl)-1H-imidazol-5-yl]-6-methylpyridine] returned a melting point of 84 to 86 °C.

Compound `COc1ccc(-c2cccc(-c3nc(C(C)C)[nH]c3-c3cccc(C)n3)c2)cn1` [Example 13, 5-{3-[2-Isopropyl-5-(6-methylpyridin-2-yl)-1H-imidazol-4-yl]phenyl}-2-methoxypyridine] gave a melting point of 72 to 74 °C.

In turn, `Cc1cccc(-c2[nH]c(C(C)C)nc2-c2cccc(-c3ccsc3)c2)n1` [Example 14, 2-[2-Isopropyl-4-(3-thien-3-ylphenyl)-1H-imidazol-5-yl]-6-methylpyridine] yielded a melting point of 83 to 85 °C.

The compound `Cc1cccc(-c2[nH]c(C(C)C)nc2-c2cccc(-c3ccc(NS(C)(=O)=O)cc3)c2)n1` [Example 15, N-{3′-[2-Isopropyl-5-(6-methylpyridin-2-yl)-1H-imidazol-4-yl]-1,1′-biphenyl-4-yl}methanesulfonamide] gave a melting point of 128 to 130 °C.

Compound `CSc1ccc(-c2cccc(-c3nc(C(C)C)[nH]c3-c3cccc(C)n3)c2)cc1` [Example 16, 2-{2-Isopropyl-4-[4′-(methylthio)-1,1′-biphenyl-3-yl]-1H-imidazol-5-yl}-6-methylpyridine] had a melting point of 80 to 82 °C.

`Cc1cccc(-c2[nH]c(C(C)C)nc2-c2cccc(-c3cccc(S(C)(=O)=O)c3)c2)n1` [Example 18, 2-{2-Isopropyl-4-[3′-(methylsulfonyl)-1,1′-biphenyl-3-yl]-1H-imidazol-5-yl}-6-methylpyridine] came in with a melting point of 97 to 100 °C.

`Cc1cccc(-c2[nH]c(C(C)C)nc2-c2cccc(-c3cccc(NS(C)(=O)=O)c3)c2)n1` [Example 19, N-{3′-[2-Isopropyl-5-(6-methylpyridin-2-yl)-1H-imidazol-4-yl]-1,1′-biphenyl-3-yl}methanesulfonamide] displayed a melting point of 108 to 112 °C.

In turn, `Cc1cccc(-c2[nH]c(C(C)C)nc2-c2cccc(-c3cccs3)c2)n1` [Example 20, 2-[2-Isopropyl-4-(3-thien-2-ylphenyl)-1H-imidazol-5-yl]-6-methylpyridine] came in with a melting point of 73 to 76 °C.

`Cc1cccc(-c2[nH]c(C(C)C)nc2-c2cccc(-c3ccoc3)c2)n1` [Example 21, 2-{4-[3-(3-Furyl)phenyl]-2-isopropyl-1H-imidazol-5-yl}-6-methylpyridine] had a melting point of 74 to 78 °C.

`Cc1cccc(-c2[nH]c(C(C)C)nc2-c2cccc(-c3ccc[nH]3)c2)n1` [Example 23, 2-{2-Isopropyl-4-[3-(1H-pyrrol-2-yl)phenyl]-1H-imidazol-5-yl}-6-methylpyridine] returned a melting point of 103 to 107 °C.

Compound `CC(=O)c1ccc(-c2cccc(-c3nc(C(C)C)[nH]c3-c3cccc(C)n3)c2)cc1` [Example 24, 1-{3′-[2-Isopropyl-5-(6-methylpyridin-2-yl)-1H-imidazol-4-yl]-1,1′-biphenyl-4-yl}ethanone] came in with a melting point of 84 to 87 °C.

On to `CCS(=O)(=O)c1ccc(-c2cccc(-c3nc(C(C)C)[nH]c3-c3cccc(C)n3)c2)cc1` [Example 25, 2-{2-Isopropyl-4-[4′-(ethylsulfonyl)-1,1′-biphenyl-3-yl]-1H-imidazol-5-yl}-6-methylpyridine], for which the melting point was 103 to 116 °C.

In turn, `Cc1cccc(-c2[nH]c(C(C)C)nc2-c2cccc(-c3ccc([N+](=O)[O-])cc3)c2)n1` [Example 27, 2-[2-Isopropyl-4-(4′-nitro-1,1′-biphenyl-3-yl)-1H-imidazol-5-yl]-6-methylpyridine] had a melting point of 95 to 105 °C.

For `Cc1cccc(-c2[nH]c(C(C)C)nc2-c2cccc(-c3ccc(N)cc3)c2)n1` [Example 28, 2-[2-Isopropyl-4-(4′-amino-1,1′-biphenyl-3-yl)-1H-imidazol-5-yl]-6-methylpyridine], the melting point lay in the range of 107 to 117 °C.

For the compound `Cc1cccc(-c2[nH]c(C(C)C)nc2-c2cccc(-c3ccc(CN)cc3)c2)n1` [Example 29, 1-{3′-[2-Isopropyl-5-(6-methylpyridin-2-yl)-1H-imidazol-4-yl]-1,1′-biphenyl-4-yl}methanamine], the melting point is 113 to 123 °C (dec.).

`CCS(=O)(=O)Nc1ccc(-c2cccc(-c3nc(C(C)C)[nH]c3-c3cccc(C)n3)c2)cc1` [Example 30, N-{3′-[2-Isopropyl-5-(6-methylpyridin-2-yl)-1H-imidazol-4-yl]-1,1′-biphenyl-4-yl}ethanesulfonamide] gave a melting point of 123 to 135 °C.

The compound `Cc1cccc(-c2[nH]c(C(C)C)nc2-c2cccc(-c3ccc(NS(=O)(=O)C4CC4)cc3)c2)n1` [Example 31, N-{3′-[2-Isopropyl-5-(6-methylpyridin-2-yl)-1H-imidazol-4-yl]-1,1′-biphenyl-4-yl}cyclopropylsulfonamide] came in with a melting point of 135 to 145 °C.

Compound `CC(=O)Nc1ccc(-c2cccc(-c3nc(C(C)C)[nH]c3-c3cccc(C)n3)c2)cc1` [Example 32, N-{3′-[2-Isopropyl-5-(6-methylpyridin-2-yl)-1H-imidazol-4-yl]-1,1′-biphenyl-4-yl}acetamide] gave a melting point of 140 to 145 °C.

Turning to `Cc1cccc(-c2[nH]c(C(C)C)nc2-c2cccc(-c3ccc(NC(=O)C(C)(C)O)cc3)c2)n1` [Example 34, 2-Hydroxy-N-{3′-[2-isopropyl-5-(6-methylpyridin-2-yl)-1H-imidazol-4-yl]-1,1′-biphenyl-4-yl}-2-methylpropanamide], the melting point lay within 123 to 135 °C.

In turn, `Cc1cccc(-c2[nH]c(C(C)C)nc2-c2cccc(-c3ccc(C(N)=O)cn3)c2)n1` [Example 36, 6-{3-[2-Isopropyl-5-(6-methylpyridin-2-yl)-1H-imidazol-4-yl]phenyl}nicotinamide] displayed a melting point of 138 to 144 °C.

In turn, `Cc1cccc(-c2nc(C(C)C)[nH]c2-c2cccc(-c3ccc(S(N)(=O)=O)cc3)c2)n1` [Example 37, 3′-[2-Isopropyl-4-(6-methylpyridin-2-yl)-1H-imidazol-5-yl]-1,1′-biphenyl-4-sulfonamide] gave a melting point of 255 to 258 °C.

On to `CNS(=O)(=O)c1ccc(-c2cccc(-c3nc(C(C)C)[nH]c3-c3cccc(C)n3)c2)cc1` [Example 38, 3′-[2-Isopropyl-5-(6-methylpyridin-2-yl)-1H-imidazol-4-yl]-N-methyl-1,1′-biphenyl-4-sulfonamide], for which the melting point was in the range of 96 to 100 °C.

`Cc1cccc(-c2[nH]c(C(C)C)nc2-c2cccc(-c3ccc(S(=O)(=O)N(C)C)cc3)c2)n1` [Example 39, 3′-[2-Isopropyl-5-(6-methylpyridin-2-yl)-1H-imidazol-4-yl]-N,N-dimethyl-1,1′-biphenyl-4-sulfonamide] displayed a melting point of 93 to 96 °C.

With `Cc1cccc(-c2[nH]c(C(C)C)nc2-c2cccc(-c3ccc(S(=O)(=O)N4CCOCC4)cc3)c2)n1` [Example 40, 4-({3′-[2-Isopropyl-5-(6-methylpyridin-2-yl)-1H-imidazol-4-yl]-1,1′-biphenyl-4-yl}sulfonyl)morpholine], the melting point is 88 to 92 °C.

The compound `Cc1cccc(-c2[nH]c(C(C)C)nc2-c2cccc(-c3ccc(S(=O)(=O)N4CCN(C)CC4)cc3)c2)n1` [Example 41, 1-({3′-[2-Isopropyl-5-(6-methylpyridin-2-yl)-1H-imidazol-4-yl]-1,1′-biphenyl-4-yl}sulfonyl)-4-methylpiperazine] displayed a melting point of 110 to 116 °C.

Compound `Cc1cccc(-c2[nH]c(C(C)C)nc2-c2cccc(-c3cccc(S(N)(=O)=O)c3)c2)n1` [Example 42, 3′-[2-Isopropyl-5-(6-methylpyridin-2-yl)-1H-imidazol-4-yl]-1,1′-biphenyl-3-sulfonamide] came in with a melting point of 123 to 126 °C.
